Holding throughout (assay type): in vivo
In assay [1] the test system is Kochia (Kochia scoparia). Description: Test A preemergence. To be noted: Bassia scoparia, pre-emergence, 240 h, preemergence; for pest or weed control at 125 g/ha: 125 g ai/ha; for pest or weed control at 500 g/ha: 500 g ai/ha. The method, boiled down: (§1)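 Visual injury scores from 0, no effect, to 100, complete control, were assigned versus untreated controls roughly 10 d after treatment in the greenhouse. Test chemicals, formulated with surfactant in a non-phytotoxic solvent, were applied to planted seeds as a preemergence soil spray or postemergence to one- to two-leaf plants 2 to 10 cm tall, in loam–sand soil.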

The subject of assay [2] is barnyardgrass (Echinochloa crus-galli). Description: Test A preemergence. To be noted: Echinochloa crus-galli, pre-emergence, 240 h, preemergence; for pest or weed control at 125 g/ha: 125 g ai/ha; for pest or weed control at 500 g/ha: 500 g ai/ha. The method, boiled down: as §1
In assay [3] the test system is giant foxtail (Setaria faberii). Description: Test A preemergence. To be noted: Setaria faberi, pre-emergence, 240 h, preemergence; for pest or weed control at 125 g/ha: 125 g ai/ha; for pest or weed control at 500 g/ha: 500 g ai/ha. Put shortly: as §1
Assay [4] relates to pigweed (Amaranthus retroflexus). Nature of the assay: Test A preemergence. To be noted: Amaranthus retroflexus, pre-emergence, 240 h, preemergence; for pest or weed control at 125 g/ha: 125 g ai/ha; for pest or weed control at 500 g/ha: 500 g ai/ha.
Assay [5] has as its system ragweed (common ragweed, Ambrosia elatior). Nature of the assay: Test A preemergence. To be noted: Ambrosia artemisiifolia, pre-emergence, 240 h, preemergence; for pest or weed control at 125 g/ha: 125 g ai/ha; for pest or weed control at 500 g/ha: 500 g ai/ha. Put shortly:
as §1

The test system of assay [6] is ryegrass, Italian (Italian ryegrass, Lolium multiflorum). Nature of the assay: Test A preemergence. To be noted: Lolium multiflorum, pre-emergence, 240 h, preemergence, 0 to 100 scale where 0 is no effect and 100 is complete control; for pest or weed control at 125 g/ha: 125 g ai/ha. Put shortly:
as §1

Assay [7] concerns Galium (catchweed bedstraw, Galium aparine). Description: Test A postemergence. To be noted: Galium, post-emergence, 240 h, postemergence; for pest or weed control at 125 g/ha: 125 g ai/ha. Put shortly:
as §1

The subject of assay [8] is Kochia (Kochia scoparia). Nature of the assay: Test A postemergence. To be noted: Bassia scoparia, post-emergence, 240 h, postemergence; for pest or weed control at 125 g/ha: 125 g ai/ha. The method, boiled down:
as §1

Assay [9] relates to giant foxtail (Setaria faberii). Description: Test A postemergence. To be noted: Setaria faberi, post-emergence, 240 h, postemergence; for pest or weed control at 125 g/ha: 125 g ai/ha. Put shortly:
as §1

Assay [10] concerns pigweed (Amaranthus retroflexus). Description: Test A postemergence. To be noted: Amaranthus retroflexus, post-emergence, 240 h, postemergence; for pest or weed control at 125 g/ha: 125 g ai/ha. Put shortly:
as §1

Assay [11] deals with wheat (Triticum aestivum). Description: Test A postemergence. To be noted: Triticum aestivum, post-emergence, 240 h, postemergence; for plant injury at 125 g/ha: 125 g ai/ha. The method, boiled down: as §1
For assay [12], the system named is barnyardgrass (Echinochloa crus-galli). Nature of the assay: Test B flooded paddy test. To be noted: Echinochloa crus-galli, 250 g ai/ha, Flood, read-out: Barnyardgrass plant response rating. The method, boiled down:
(§2)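 Percent control, visually estimated after 13–15 d in the greenhouse on a 0–100 basis, compares treated pots with untreated ones; compound was put into paddy water 3 cm above the soil when plants had two leaves.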

For assay [13], the system named is ducksalad (Heteranthera limosa). Nature of the assay: Test B flooded paddy test. To be noted: Heteranthera limosa, 250 g ai/ha, Flood, read-out: Ducksalad plant response rating. Put shortly: as §2
The next assay deals with rice (Oryra sativa). Description: Test B flooded paddy test. To be noted: Oryza sativa, 250 g ai/ha, Flood, read-out: Rice plant response rating. The method, boiled down:
as §2

The subject of assay [14] is sedge, umbrella (small-flower umbrella sedge, Cyperus difformis). Nature of the assay: Test B flooded paddy test. To be noted: Cyperus difformis, 250 g ai/ha, Flood, read-out: Sedge, Umbrella plant response rating. Put shortly: as §2
Setting [15] is: 0 to 100 scale where 0 is no effect and 100 is complete control.
The mark [16] stands for this setting: scale of 0 to 100 where 0 is no effect and 100 is complete control.

Where two headings read alike, the source gives them in different places.

On to `N#Cc1cc([C@H]2CNC(=O)[C@@H]2C(=O)Nc2ccccc2F)ccc1F` [Compound 1199], for which the pest or weed control at 125 g/ha worked out at 0% in the assay on Kochia (Kochia scoparia) [1] (visual injury rating, 0 to 100 scale where 0 is no effect and 100 is complete control, approximately 10 d, read-out: Kochia plant response rating); 90% in assay [2] (visual injury rating, 0 to 100 scale where 0 is no effect and 100 is complete control, approximately 10 d, read-out: Barnyardgrass plant response rating); 90% in [3] (visual injury rating, 0 to 100 scale where 0 is no effect and 100 is complete control, approximately 10 d, read-out: Foxtail, Giant plant response rating); 0% in assay [4] (visual injury rating, 0 to 100 scale where 0 is no effect and 100 is complete control, approximately 10 d, read-out: Pigweed plant response rating); 30% in [5] (visual injury rating, 0 to 100 scale where 0 is no effect and 100 is complete control, approximately 10 d, read-out: Ragweed plant response rating); 0% in [6] (visual injury rating, approximately 10 d, read-out: Ryegrass, Italian plant response rating). The pest or weed control at 125 g/ha came out at 20% in assay [7] (visual injury vs untreated controls after approx. 10 d, 0 = no effect, 100 = complete control, read-out: Galium plant response rating (0 to 100 scale)); 20% in the assay with Kochia (Kochia scoparia) [8] (visual injury vs untreated controls after approx. 10 d, 0 = no effect, 100 = complete control, read-out: Kochia plant response rating (0 to 100 scale)); 70% in assay [9] (visual injury vs untreated controls after approx. 10 d, 0 = no effect, 100 = complete control, read-out: Foxtail, Giant plant response rating (0 to 100 scale)); 0% in assay [10] (visual injury vs untreated controls after approx. 10 d, 0 = no effect, 100 = complete control, read-out: Pigweed plant response rating (0 to 100 scale)). Further, the pest or weed control at 500 g/ha with Kochia (Kochia scoparia) [1] (0 to 100 scale where 0 is no effect and 100 is complete control, read-out: Kochia plant response rating) was determined as 0%; in assay [2] (0 to 100 scale where 0 is no effect and 100 is complete control, read-out: Barnyardgrass plant response rating), 100%; in assay [3] (0 to 100 scale where 0 is no effect and 100 is complete control, read-out: Foxtail, Giant plant response rating), 100%; in assay [4] (0 to 100 scale where 0 is no effect and 100 is complete control, read-out: Pigweed plant response rating), 60%; in assay [5] (0 to 100 scale where 0 is no effect and 100 is complete control, read-out: Ragweed plant response rating) it was 90%; in assay [6] (500 g ai/ha, read-out: Ryegrass, Italian plant response rating), 0%. Also, the pest or weed control at 500 g/ha in assay [7] (500 g ai/ha, 0 to 100 scale, 0 is no effect, 100 is complete control, read-out: Galium plant response rating) worked out at 40%; with Kochia (Kochia scoparia) [8] (500 g ai/ha, 0 to 100 scale, 0 is no effect, 100 is complete control, read-out: Kochia plant response rating), 40%; in assay [9] (500 g ai/ha, 0 to 100 scale, 0 is no effect, 100 is complete control, read-out: Foxtail, Giant plant response rating), 90%; in [10] (500 g ai/ha, 0 to 100 scale, 0 is no effect, 100 is complete control, read-out: Pigweed plant response rating), 20%. Besides, the plant injury at 125 g/ha in assay [11] (visual injury vs untreated controls after approx. 10 d, 0 = no effect, 100 = complete control, read-out: Wheat plant response rating (0 to 100 scale)) stood at 0%. In addition, in assay [11] (500 g ai/ha, 0 to 100 scale, 0 is no effect, 100 is complete control, read-out: Wheat plant response rating), the plant injury at 500 g/ha came to 0%. In addition, the pest or weed control at 250 g/ha in assay [12] (setting [15]) worked out at 40%; in assay [13] (setting [15]), 95%; in the assay on rice (Oryra sativa) (setting [15]), 0%; in assay [14] (setting [15]), 0%.

For `O=C1NC[C@H](c2ccc3c(c2)OCO3)[C@H]1C(=O)Nc1ccccc1F` [Compound 767], the pest or weed control at 125 g/ha with Kochia (Kochia scoparia) [1] (visual rating after approx. 10 d, 0 to 100 scale where 0 is no effect and 100 is complete control, read-out: Plant response rating, Kochia) is 0%; in [2] (visual rating after approx. 10 d, 0 to 100 scale where 0 is no effect and 100 is complete control, read-out: Plant response rating, Barnyardgrass), 90%; in assay [3] (visual rating after approx. 10 d, 0 to 100 scale where 0 is no effect and 100 is complete control, read-out: Plant response rating, Foxtail, Giant), 0%; in assay [4] (visual rating after approx. 10 d, 0 to 100 scale where 0 is no effect and 100 is complete control, read-out: Plant response rating, Pigweed), 0%; in assay [5] (visual rating after approx. 10 d, 0 to 100 scale where 0 is no effect and 100 is complete control, read-out: Plant response rating, Ragweed) it was 0%; in [6] (visual rating after approx. 10 d, read-out: Plant response rating, Ryegrass, Italian) it was 0%. Moreover, the pest or weed control at 125 g/ha was 0% in [7] (visual injury after approximately 10 d, 0 to 100 scale (0 no effect, 100 complete control), read-out: Plant response rating, Galium); 0% in the assay with Kochia (Kochia scoparia) [8] (visual injury after approximately 10 d, 0 to 100 scale (0 no effect, 100 complete control), read-out: Plant response rating, Kochia); 0% in assay [9] (visual injury after approximately 10 d, 0 to 100 scale (0 no effect, 100 complete control), read-out: Plant response rating, Foxtail, Giant); 0% in assay [10] (visual injury after approximately 10 d, 0 to 100 scale (0 no effect, 100 complete control), read-out: Plant response rating, Pigweed). Besides, the pest or weed control at 500 g/ha in the assay with Kochia (Kochia scoparia) [1] (0 to 100 scale, 0 = no effect, 100 = complete control, read-out: Plant response rating, Kochia) was found to be 0%; in assay [2] (0 to 100 scale, 0 = no effect, 100 = complete control, read-out: Plant response rating, Barnyardgrass), 90%; in assay [3] (0 to 100 scale, 0 = no effect, 100 = complete control, read-out: Plant response rating, Foxtail, Giant), 90%; in assay [4] (0 to 100 scale, 0 = no effect, 100 = complete control, read-out: Plant response rating, Pigweed), 0%; in assay [5] (0 to 100 scale, 0 = no effect, 100 = complete control, read-out: Plant response rating, Ragweed), 0%. In [11] (visual injury after approximately 10 d, 0 to 100 scale (0 no effect, 100 complete control), read-out: Plant response rating, Wheat), the plant injury at 125 g/ha is 0%. Besides, the pest or weed control at 250 g/ha in assay [12] (setting [16]) stood at 0%; in assay [13] (setting [16]), 100%; in the assay with rice (Oryra sativa) (setting [16]), 0%; in assay [14] (setting [16]), 0%.

The values are drawn from patent US12077503B2, “Substituted cyclic amides and their use as herbicides” (FMC CORPORATION, priority 2015, dated 2024).
